Read-outs that look alike come from different tables or passages of the source.

Data on 8 compounds can be found in patent US20240100201A1, “Labeling precursors and radiotracers for nuclear medicine diagnosis and therapy of prostate cancer-induced bone metastases” (SCV-SpezialChemikalienVertrieb GmbH, priority 2021, published 2024).

Data set [1] concerns the target T1, PSMA (Homo sapiens, UniProt Q04609).
T1 construct: PSMA-positive LNCaP cells from Sigma-Aldrich; host or cells: LNCaP cells
Nature of the data set: competitive radioligand assay on PSMA-positive LNCaP cells (Ki). It is filed as binding. The protocol: By means of comparative radioligand assays, binding affinity for PSMA is determined for the radiotracer or labeling precursor DOTA.L-Lys(SA.Pam)KuE-617 and reference structures. The Ki-value for [^natLu]Lu-DOTA.L-Lys(SA.Pam)KuE-617 corresponds roughly to the value for the labeling precursor DOTA.L-Lys(SA.Pam) KuE-617. […] Compared to DOTA.L-Lys.KuE-617—corresponding to structural formula (14) in scheme 31—the Ki of [^natLu]Lu-DOTA.L-Lys(SA.Pam)KuE-617 is greater by a factor of about 2. It can be seen from this that the squaric acid-pamidronate group reduces affinity for PSMA.
Non-active (cold) [natLu]Lu complexes are prepared by shaking a solution containing the labeling precursor DOTA-L-Lys(SA.Pam)-KuE-617 (371 μl, 1 mg/ml, 250 nmol) with LuCl3 (129 μl, 1 mg/ml, 375 nmol, metal to labeling precursor ratio 1.5:1) in 1 M ammonium acetate buffer at 95° C. for 2 hours. Complex formation is monitored by ESI-LC/MS.
PSMA binding affinity is determined by the competitive radioligand assay described by Benešová et al. (Benešová, M.; Schaefer, M.; Bauder-Wüst, U.; Afshar-Oromieh, A.; Kratochwil, C.; Mier, W.; Haberkorn, U.; Kopka, K.; Eder, M. Preclinical Evaluation of a Tailor-Made DOTA-Conjugated PSMA Inhibitor with Optimized Linker Moiety for Imaging and Endoradiotherapy of Prostate Cancer. J. Nucl. Med. 2015, 56 (6), 914-920.). For this purpose, PSMA-positive LNCaP cells from Sigma-Aldrich in RPMI 1640 (Thermo Fisher Scientific) supplemented with 10% fetal bovine serum (Thermo Fisher Scientific), 100 μg/ml streptomycin and 100 units/ml penicillin are cultured at 37° C. in 5% CO2. The LNCaP cells are incubated with increasing concentrations of solutions containing the labeling precursors in the presence of 0.75 nM [^68Ga]Ga-PSMA-10 for 45 min. Free radioactivity is removed by several washes with ice-cold PBS. The samples obtained are measured in a y counter (2480 WIZARD2 Automatic Gamma Counter, PerkinElmer). The measurement data are evaluated in GraphPad Prism 9 using non-linear regression.

Data set [2] deals with T1, PSMA. Nature of the data set: cell-based competitive assay on LNCaP cells (PSMA affinity, IC50). To be noted: 45 min, 68Ga-labeled PSMA reference compound. The class given is binding. The text has this: Using a cell-based assay, the affinity of the KuE targeting vector with a lipophilic linker—analogously to PSMA-617—and with a squaric acid linker was examined using the compounds NH2.DOTAGA.KuE-617 and NH2.DOTAGA.QS.KuE (structural formulae (8) and (10) in scheme 32).
For the assay, LNCaP cells were pipetted into multiwell plates (Merck Millipore Multiscreen™). To the compounds to be analyzed, in increasing concentrations, was in each case added a defined amount or concentration of the reference compound ^68Ga[Ga]PSMA-with known Kdvalue, and the mixture was incubated in the wells with the LNCaP cells for 45 min. After washing several times, the cell-bound activity was determined.
In order to determine non-specific binding, an excess of the PSMA inhibitor 2-PMPA (2-(phosphonomethyl)[…]) was additionally added to all compounds, and they were subjected to the same LNCaP assay-as described above.

Data set [3] is described as follows: adsorption isotherms on hydroxyapatite by the method of Langmuir and Freundlich. The class given is binding. Conditions: Langmuir-Freundlich. On the procedure:
For this purpose, the adsorption therms are determined by the method of Langmuir and Freundlich.
For comparison, schemes 23 and 24 show conjugates of the chelator NODAGA with squaric acid pamidronate (NODAGA.QS.Pam) and NODAGA with zoledronate (NODAGA.Zol), and also the respective coefficients of adsorption KLF, measured by the method of Langmuir and Freundlich.

Data set [4] is described as follows: lipophilicity, partition in n-octanol and PBS. It is filed as physicochemical. To be noted: pH 7.4. The protocol: The lipophilicity of […] is determined by determining the partition equilibrium of the compound in a mixture of n-octanol and PBS.
LogD7.4 of the respective compound is determined via the partition coefficient in n-octanol and PBS. The labeling solution is adjusted to pH 7.4 and 5 MBq is diluted in 700 μl of n-octanol and 700 μl of PBS. It is shaken at 1500 rpm for 2 min and then centrifuged. 400 μl of the n-octanol phase and 400 μl of the PBS phase were each transferred to a new Eppendorf tube. 3-6 μl is then pipetted onto a TLC plate and analyzed using a phosphor imager. The logD7.4 is calculated based on the ratio of the activities of the two phases. The measurement of each phase is also repeated twice more with the sample of higher activity, such that three logD7.4 values can be obtained and an average can be calculated.

Data set [5] in a line: affinity for hydroxyapatite (HAP) of 177Lu-labeled compounds. The class given is binding. Conditions: ordinary HAP, 1 h room temperature. On the procedure: Calcium-containing crystalline hydroxyapatite is an essential component of mammalian bones and is suitable as a model substrate for the in vitro study of bisphosphonate accumulation in healthy bone tissue and bone metastases. […] In contrast, […] is found to have an HAP-enriched fraction of only 1.2%. In order to determine selectivity, accumulation on HAP previously treated with excess pamidronate was additionally measured.
Hydroxyapatite (20 mg) is incubated in saline (1 ml) for 24 h. 50 μl of the radiotracer [^177Lu]Lu-DOTA-L-Lys(SA.Pam)-KuE-617 (5 MBq) or [^177Lu]Lu-PSMA-617 (5 MBq) is added. Each suspension is vortexed with a vortex mixer for 20 s and incubated at room temperature for 1 h. […] The radioactivity of the liquids and HAP-containing supernatants obtained is measured in each case with a curiemeter (Isomed 2010 activimeter, MED Nuclear-Medizintechnik Dresden GmbH). The binding of [^177Lu]Lu-DOTA-L-Lys(SA.Pam)-KuE-617 and [^177Lu]Lu-PSMA-617 is determined as a percentage of the activity absorbed on HAP. As a reference, the HAP binding of free Lu-177 is measured in an analogous manner. […] For this purpose, HAP (20 mg) in saline solution (1 ml) is incubated with pamidronate (100 mg) and the respective activities of [^177Lu]Lu-DOTA-L-Lys(SA.Pam)-KuE-617 and free Lu-177 are determined.

Where [6] appears, read: LNCaP cells, 0.75 nM [68Ga]Ga-PSMA-10, 45 min, read-out: PSMA Ki.

T1 sequence (Q04609 whole entry): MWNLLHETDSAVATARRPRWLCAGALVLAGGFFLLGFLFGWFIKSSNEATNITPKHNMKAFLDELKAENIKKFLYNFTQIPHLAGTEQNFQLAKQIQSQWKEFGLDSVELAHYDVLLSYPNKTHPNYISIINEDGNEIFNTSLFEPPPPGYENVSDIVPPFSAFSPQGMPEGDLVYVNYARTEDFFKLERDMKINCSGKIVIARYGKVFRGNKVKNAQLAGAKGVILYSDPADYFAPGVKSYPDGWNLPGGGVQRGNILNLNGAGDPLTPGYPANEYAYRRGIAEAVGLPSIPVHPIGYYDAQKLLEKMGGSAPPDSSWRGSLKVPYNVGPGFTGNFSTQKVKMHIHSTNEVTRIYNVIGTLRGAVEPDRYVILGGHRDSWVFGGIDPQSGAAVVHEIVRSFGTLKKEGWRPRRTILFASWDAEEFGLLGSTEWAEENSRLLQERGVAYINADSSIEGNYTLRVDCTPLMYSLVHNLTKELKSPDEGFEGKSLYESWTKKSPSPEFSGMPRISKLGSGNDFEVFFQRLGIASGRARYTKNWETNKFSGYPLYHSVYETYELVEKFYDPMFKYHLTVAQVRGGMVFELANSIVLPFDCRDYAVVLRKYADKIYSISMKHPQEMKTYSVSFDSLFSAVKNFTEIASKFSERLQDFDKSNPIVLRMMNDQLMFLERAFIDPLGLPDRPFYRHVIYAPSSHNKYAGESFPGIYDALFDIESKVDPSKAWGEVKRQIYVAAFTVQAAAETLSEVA

Turning to `O=C(O)CCC(NC(=O)NC(CCCCNC(=O)C(Cc1ccc2ccccc2c1)NC(=O)C1CCC(CNC(=O)C(CCCCNc2c(NCCC(O)(P(=O)(O)O)P(=O)(O)O)c(=O)c2=O)NC(=O)CN2CCN(CC(=O)O)CCN(CC(=O)O)CCN(CC(=O)O)CC2)CC1)C(=O)O)C(=O)O` [DOTA.L-Lys(SA.Pam)KuE-617], affinity on PSMA [1] was put at a Ki of 53 ± 4 nM.

Turning to `NCCCCC(NC(=O)CN1CCN(CC(=O)O)CCN(CC(=O)O)CCN(CC(=O)O)CC1)C(=O)NCC1CCC(C(=O)NC(Cc2ccc3ccccc3c2)C(=O)NCCCCC(NC(=O)NC(CCC(=O)O)C(=O)O)C(=O)O)CC1` [DOTA.L-Lys.KuE-617], the inhibition constant (Ki) at PSMA [1] (setting [6]) was 20 ± 3 nM.

With `NCCN1CCN(CC(=O)O)CCN(C(CCC(=O)NCC2CCC(C(=O)NC(Cc3ccc4ccccc4c3)C(=O)NCCCCC(NC(=O)NC(CCC(=O)O)C(=O)O)C(=O)O)CC2)C(=O)O)CCN(CC(=O)O)CC1` (stereo not drawn) [NH2.DOTAGA.KuE-617], the IC50 on PSMA [2] is 20.6 ± 3.4 nM.

The compound `NCCN1CCN(CC(=O)O)CCN(C(CCC(=O)NCCNc2c(NCCCCC(NC(=O)NC(CCC(=O)O)C(=O)O)C(=O)O)c(=O)c2=O)C(=O)O)CCN(CC(=O)O)CC1` (stereo not drawn) [NH2.DOTAGA.QS.KuE] registered an IC50 at PSMA [2] of 20.2 ± 3.5 nM.

With `O=C(O)CN1CCN(CC(=O)O)CCN(C(CCC(=O)NCCNc2c(NCCC(O)(P(=O)(O)O)P(=O)(O)O)c(=O)c2=O)C(=O)O)CC1` (stereo not drawn) [NODAGA.QS.Pam], in data set [3], the “coefficient of adsorption KLF compared with NODAGA.Zol” value is reported as “about three times greater”.

As to `O=C(O)CCC(NC(=O)NC(CCCCNC(=O)C(Cc1ccc2ccccc2c1)NC(=O)C1CCC(CNC(=O)CN2CCN(CC(=O)O)CCN(CC(=O)O)CCN(CC(=O)O)CC2)CC1)C(=O)O)C(=O)O` (stereo not drawn) [PSMA-617, reference compound], the Ki on PSMA [1] (setting [6]) was 7 ± 1 nM.

`O=C(O)CCC(NC(=O)NC(CCCCNC(=O)C(Cc1ccc2ccccc2c1)NC(=O)C1CCC(CNC(=O)CCC(C(=O)O)N2CCN(CC(=O)O)CCN(CCNc3c(NCCC(O)(P(=O)(O)O)P(=O)(O)O)c(=O)c3=O)CCN(CC(=O)O)CC2)CC1)C(=O)O)C(=O)O` (stereo not drawn) [Pam.SA.DOTAGA.KuE-617] gave an IC50 on PSMA [2] of 49.8 ± 10 nM.

Turning to [^177Lu]Lu-PSMA-617, the “LogD7,4 (n-octanol/PBS)” value in data set [4] is reported as −2.2 ± 0.20. The “proportion bound to HAP” value in data set [5] is 1.2%.
